Reference: US10231939B2, “Hydroxytyrosol and oleuropein compositions for induction of DNA damage, cell death and LSD1 inhibition” (priority 2012, dated 2019)

Legend:
Assay in all cases: Cell proliferation (Cell Titer-Blue Assay)
Assay type in all cases: cell-based, human
[1] = system: HL-60 cells; conditions: for EC50: Homo sapiens
Protocol: Human acute myeloid leukemic HL-60 cells (ATCC No. CCL-240) obtained from the ATCC were maintained in Dulbecco's modified Eagle's medium (DMEM, Gibco®, Invitrogen, Carlsbad, USA) supplemented with 20% fetal bovine serum (FBS, In Vitro Technologies, Victoria, Australia), antibody/antimycotic containing 100 U/mL Penicillin, 100 μg/mL Streptomycin, 0.25 μg/mL Amphotericin B (Invitrogen, Carlsbad, Calif., USA) and 1× GlutaMAX (Gibco, Invitrogen). Cells were cultured in suspension in a humidified atmosphere of 5% (v/v) CO2 at 37° C. and were maintained in exponential growth phase. For maintenance, cells were passaged twice per week and seeded at ratios 1:10. Cell proliferation was determined using the Cell Titer-Blue Assay kit (Promega, Madison, Wis., USA). Cells were seeded at 10,000 cells per well in black flat bottom 96-well plates (Nalge Nunc, Penfield, N.Y., USA) and treated with serial doses of hydroxytyrosol (0-3200 μM) and oleuropein (0-12800 μM) for 24, 48 and 120 hours at 37° C., 5% (v/v) CO2. Following incubation with the test samples, Cell-Titer Blue reagent (20 μl per 100 μL) was added to each well and mixed gently for 5 sec prior to 4 hr incubation at 37° C. in a humidified atmosphere of 5% CO2. Fluorescence intensity (λex=550 nm and λem=615 nm) was determined using a Perkin Elmer Victor3 multilabel microplate counter (PerkinElmer, Waltham, Mass., USA). Data were expressed as % relative cell viability compared to untreated cells after correction of subtracting the media control fluorescence reading.

[2] = system: A431 cells; conditions: for EC50: Homo sapiens, A-431
Protocol: (§1) Human epidermal squamous carcinoma A431 cells (ATCC No. CRL-1555), human breast adenocarcinoma MCF7 cells (ATCC No. HTB-22) and brain glioblastoma T98G cells (ATCC No. CRL-1690) obtained from the ATCC were grown as monolayers in a Modified Eagle's Medium (a-MEM) supplemented with 2 mmol/L HEPES (pH 7.4; GIBCO-Invitrogen), 10% (v/v) FBS, 2 mmol/L L-glutamine (GIBCO-Invitrogen), and 80 units gentamicin (GIBCO-Invitrogen). Human epithelial lung adenocarcinoma A549 cells (ATCC No. CCL-185), human liver hepatocellular carcinoma and human colorectal carcinoma HT-29 cells (ATCC No. HTB-38) were obtained from the American Type Culture Collection and grown as monolayers in DMEM (Gibco, Invitrogen) supplemented with 10% (v/v) FBS (In Vitro Technologies), antibody/antimycotic containing 100 U/mL Penicillin, 100 μg/mL Streptomycin, 0.25 μg/mL Amphotericin B (Invitrogen, Carlsbad). All adherent cells were maintained in the exponential growth phase in T75 cm^2 vented culture flasks and passaged by 0.05% (v/v) trypsin-EDTA (GIBCO, Invitrogen) before seeding; at 37° C., 5% (v/v) CO2. Cell proliferation was determined using the Cell Titer-Blue Assay kit (Promega, Madison, Wis., USA). Cells were seeded at 10,000 cells per well in black flat bottom 96-well plates (Nalge Nunc, Penfield, N.Y., USA) and treated with serial doses of hydroxytyrosol (0-3200 μM) and oleuropein (0-12800 μM) for 24, 48 and 120 hours at 37° C., 5% (v/v) CO2. Following incubation with the test samples, Cell-Titer Blue reagent (20 μl per 100 μL) was added to each well and mixed gently for 5 sec prior to 4 hr incubation at 37° C. in a humidified atmosphere of 5% CO2. Fluorescence intensity (λex=550 nm and λem=615 nm) was determined using a Perkin Elmer Victor3 multilabel microplate counter (PerkinElmer, Waltham, Mass., USA). Data were expressed as % relative cell viability compared to untreated cells after correction of subtracting the media control fluorescence reading.

[3] = system: A549 cells; conditions: for EC50: Homo sapiens
Protocol: as §1

[4] = system: HT-29 cells; conditions: for EC50: Homo sapiens
Protocol: as §1

[5] = system: MCF7 cells; conditions: for EC50: Homo sapiens
Protocol: as §1

[6] = system: T98G cells; conditions: for EC50: Homo sapiens
Protocol: as §1

| EC50 ([1]; HL-60, 24 hr) [µM] | EC50 ([1]; HL-60, 48 hr) [µM] | EC50 ([1]; HL-60, 120 hr) [µM] | EC50 ([2]; A431, 24 hr) [µM] | EC50 ([2]; A431, 48 hr) [µM] | EC50 ([2]; A431, 120 hr) [µM] | EC50 ([3]; A549, 24 hr) [µM] | EC50 ([3]; A549, 48 hr) [µM] | EC50 ([3]; A549, 120 hr) [µM] | EC50 ([4]; HT-29, 24 hr) [µM] | EC50 ([4]; HT-29, 48 hr) [µM] | EC50 ([4]; HT-29, 120 hr) [µM] | EC50 ([5]; MCF7, 24 hr) [µM] | EC50 ([5]; MCF7, 48 hr) [µM] | EC50 ([5]; MCF7, 120 hr) [µM] | SMILES | EC10 (concentration required to reduce the cell viability of the population to 10%) ([1]; HL-60, 120 hr) [µM] | EC10 (concentration required to reduce the cell viability of the population to 10%) ([2]; A431, 120 hr) [µM] | EC10 (concentration required to reduce the cell viability of the population to 10%) ([3]; A549, 120 hr) [µM] | EC10 (concentration required to reduce the cell viability of the population to 10%) ([4]; HT-29, 120 hr) [µM] | EC10 (concentration required to reduce the cell viability of the population to 10%) ([5]; MCF7, 120 hr) [µM] | further results |
| --- | --- | --- | --- | --- | --- | --- | --- | --- | --- | --- | --- | --- | --- | --- | --- | --- | --- | --- | --- | --- | --- |
| 717 | 900 | 100 | 1750 | 4400 | 2900 | 1080 | 1100 | 1220 | 1580 | 2500 | 1850 | 4750 | 3000 | 4100 | C/C=C1/[C@H](O[C@@H]2O[C@H](CO)[C@@H](O)[C@H](O)[C@H]2O)OC=C(C(=O)OC)[C@H]1CC(=O)OCCc1ccc(O)c(O)c1 [OL, oleuropein] | 230 | 4450 | 1540 | 2950 | 4700 | EC10 (concentration required to reduce the cell viability of the population to 10%) ([6]; 120 hr): 6220 µM; EC50 ([6]; 24 hr): 2770 µM; EC50 ([6]; 48 hr): 6100 µM; EC50 ([6]; 120 hr): 5500 µM |
| 632 | 100 | 13 | 870 | 920 | 480 | 417 | 220 | 160 | 800 | 230 | 310 | 580 | 900 | 520 | OCCc1ccc(O)c(O)c1 [HT, 4-(2-hydroxyethyl)-1,2-benzenediol] | 29 | 1000 | 320 | 380 | 750 | EC10 (concentration required to reduce the cell viability of the population to 10%) ([6]; 120 hr): 1120 µM; EC50 ([6]; 24 hr): 1340 µM; EC50 ([6]; 48 hr): 1750 µM; EC50 ([6]; 120 hr): 700 µM |
